Reference: US20040220094A1, “Inverse agonist and agonist peptides that stimulate/inhibit hair growth” (priority 2003, published 2004)
Each block holds one molecule with its values, some of them ahead of it. Non-standard residues stand in square brackets, D forms with d. Residues, ends and D or L forms follow the SMILES beside them. No end group written: not given here. *: point of attachment. Hydrocinnamoyl = O=C(CCc1ccccc1)*; Nle = CCCC[C@H](N)C(=O)O

Key:
[1] = target: T1, PTH1R receptor (Homo sapiens, UniProt Q03431); assay: kidney-based assays; format: binding; conditions: kidney-based assay
T1 sequence (Q03431 27-593): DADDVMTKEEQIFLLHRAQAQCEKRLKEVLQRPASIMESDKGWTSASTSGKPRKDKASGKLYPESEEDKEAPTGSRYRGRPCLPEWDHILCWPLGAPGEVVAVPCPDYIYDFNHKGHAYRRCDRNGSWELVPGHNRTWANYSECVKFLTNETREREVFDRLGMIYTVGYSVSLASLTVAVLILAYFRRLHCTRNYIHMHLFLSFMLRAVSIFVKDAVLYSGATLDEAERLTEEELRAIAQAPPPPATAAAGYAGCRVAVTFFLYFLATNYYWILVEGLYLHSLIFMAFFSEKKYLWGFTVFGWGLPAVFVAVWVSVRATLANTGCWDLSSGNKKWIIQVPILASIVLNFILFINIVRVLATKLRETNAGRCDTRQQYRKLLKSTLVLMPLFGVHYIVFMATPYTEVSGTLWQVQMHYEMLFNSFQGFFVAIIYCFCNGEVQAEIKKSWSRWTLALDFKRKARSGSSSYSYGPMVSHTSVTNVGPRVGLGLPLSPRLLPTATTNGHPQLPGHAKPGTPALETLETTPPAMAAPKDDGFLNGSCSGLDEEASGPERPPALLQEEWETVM

[2] = target: T1, PTH1R receptor; assay: bone-based assays; format: binding; conditions: bon-based assay
[3] = target: T1, PTH1R receptor; assay: potency of inverse agonist peptides (assay not specified)
[4] = target: T2, Type I PTH/PTHrP receptor (PTH1R receptor); assay: bone-based assay
T2 chain: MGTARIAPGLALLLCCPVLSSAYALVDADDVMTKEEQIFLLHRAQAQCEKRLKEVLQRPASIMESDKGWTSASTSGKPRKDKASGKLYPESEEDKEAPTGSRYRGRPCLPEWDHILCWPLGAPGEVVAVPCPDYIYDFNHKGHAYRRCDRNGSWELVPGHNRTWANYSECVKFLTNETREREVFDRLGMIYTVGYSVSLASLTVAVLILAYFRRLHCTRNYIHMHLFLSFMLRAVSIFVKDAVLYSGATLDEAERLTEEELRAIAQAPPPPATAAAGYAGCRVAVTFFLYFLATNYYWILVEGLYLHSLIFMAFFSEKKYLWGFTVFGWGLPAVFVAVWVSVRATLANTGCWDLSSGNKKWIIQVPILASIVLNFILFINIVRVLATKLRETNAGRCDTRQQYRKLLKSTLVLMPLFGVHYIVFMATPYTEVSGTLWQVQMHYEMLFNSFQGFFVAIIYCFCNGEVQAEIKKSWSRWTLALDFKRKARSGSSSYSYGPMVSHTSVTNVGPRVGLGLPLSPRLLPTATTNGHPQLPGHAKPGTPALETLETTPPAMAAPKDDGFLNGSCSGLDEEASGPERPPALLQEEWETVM

[5] = target: T2, Type I PTH/PTHrP receptor (PTH1R …); assay: kidney-based assay

Molecule: Leu-Leu-His-Asn-Leu-Gly-Lys-Ser-Ile-Gln-Asp-Leu-Arg-Arg-Arg-Phe-Phe-Leu-His-His-Leu-Ile-Ala-Glu-Ile-His-Thr-Ala-NH2 (LLHNLGKSIQDLRRRFFLHHLIAEIHTA-NH2)
fold more potent than PTHrP 7-34 ([3]; relative to PTHrP 7-34): (which is 23 fold more potent than PTHrP 7-34);

Molecule: Leu-Leu-His-Asp-Leu-D-Trp-Lys(cyclization)-Ser-Ile-Gln-Asp(cyclization)-Leu-Arg-Arg-Arg-Phe-Phe-Leu-His-His-Leu-Ile-Ala-Glu-Ile-His-Thr-Ala-NH2
potency [3]: increased potency

Next, values leading:

Ki [1]: 73 nM
Kd ([1]; read-out: Kbinding): 4 nM
Ki [2]: 3.5 nM
Kd ([2]; read-out: Kbinding): 9 nM
Molecule: CCCC[C@H](NC(=O)[C@H](CO)NC(=O)[C@H](CO)NC(=O)[C@H](CC(C)C)NC(=O)[C@H](Cc1c[nH]cn1)NC(=O)[C@H](CCCCNC(=O)CCc1ccccc1)NC(=O)CNC(=O)[C@H](CC(C)C)NC(=O)[C@H](CC(N)=O)NC(=O)[C@H](Cc1c[nH]cn1)NC(=O)[C@H](CCCC)NC(=O)[C@@H](N)Cc1ccccc1)C(=O)N[C@@H](CCC(=O)O)C(=O)N[C@@H](CCCNC(=N)N)C(=O)N[C@H](C(=O)N[C@@H](CCC(=O)O)C(=O)N[C@@H](Cc1c[nH]c2ccccc12)C(=O)N[C@@H](CC(C)C)C(=O)N[C@@H](CCCNC(=N)N)C(=O)N[C@@H](CCCCN)C(=O)N[C@@H](CCCCN)C(=O)N[C@@H](CC(C)C)C(=O)N[C@@H](CCC(N)=O)C(=O)N[C@@H](CC(=O)O)C(=O)N[C@H](C(=O)N[C@@H](Cc1c[nH]cn1)C(=O)N[C@@H](CC(N)=O)C(=O)N[C@@H](Cc1ccc(O)cc1)C(=O)O)C(C)C)C(C)C (H-F[Nle]HNLGK(Hydrocinnamoyl)HLSS[Nle]ERVEWLRKKLQDVHNY-OH; N-terminus and C-terminus assumed)

Ki [4]: 3.5 nM
Ki [5]: 73 nM
B1: Phe-Nle-His-Asn-Leu-Gly-Lys-(epsilon-3-phenylpropanoyl)-His-Leu-Ser-Ser-Nle-Glu-Arg-Val-Glu-Trp-Leu-Arg-Lys-Lys-Leu-Gln-Asp-Val-His-Asn-Tyr (peptide)
peptide: FXHNLGKHLSSXERVEWLRKKLQDVHNY
modifications: Nle (norleucine) at peptide positions 2 and 12 (written X in letters); Lys at peptide position 7 carries epsilon-3-phenylpropanoyl
